In patent publication US7420056B2, “Substituted bicyclic imidazo-3-ylamine compounds” (Gruenenthal GmbH, priority 2004, dated 2008) one finds inhibition and IC50 data, which are given here for 36 compounds.

pIC50: −log10 of the molar value. Where a name gives a salt, the structure may show the parent alone.

Sequence of mGluR5 receptor (I3LUI7 19-1212): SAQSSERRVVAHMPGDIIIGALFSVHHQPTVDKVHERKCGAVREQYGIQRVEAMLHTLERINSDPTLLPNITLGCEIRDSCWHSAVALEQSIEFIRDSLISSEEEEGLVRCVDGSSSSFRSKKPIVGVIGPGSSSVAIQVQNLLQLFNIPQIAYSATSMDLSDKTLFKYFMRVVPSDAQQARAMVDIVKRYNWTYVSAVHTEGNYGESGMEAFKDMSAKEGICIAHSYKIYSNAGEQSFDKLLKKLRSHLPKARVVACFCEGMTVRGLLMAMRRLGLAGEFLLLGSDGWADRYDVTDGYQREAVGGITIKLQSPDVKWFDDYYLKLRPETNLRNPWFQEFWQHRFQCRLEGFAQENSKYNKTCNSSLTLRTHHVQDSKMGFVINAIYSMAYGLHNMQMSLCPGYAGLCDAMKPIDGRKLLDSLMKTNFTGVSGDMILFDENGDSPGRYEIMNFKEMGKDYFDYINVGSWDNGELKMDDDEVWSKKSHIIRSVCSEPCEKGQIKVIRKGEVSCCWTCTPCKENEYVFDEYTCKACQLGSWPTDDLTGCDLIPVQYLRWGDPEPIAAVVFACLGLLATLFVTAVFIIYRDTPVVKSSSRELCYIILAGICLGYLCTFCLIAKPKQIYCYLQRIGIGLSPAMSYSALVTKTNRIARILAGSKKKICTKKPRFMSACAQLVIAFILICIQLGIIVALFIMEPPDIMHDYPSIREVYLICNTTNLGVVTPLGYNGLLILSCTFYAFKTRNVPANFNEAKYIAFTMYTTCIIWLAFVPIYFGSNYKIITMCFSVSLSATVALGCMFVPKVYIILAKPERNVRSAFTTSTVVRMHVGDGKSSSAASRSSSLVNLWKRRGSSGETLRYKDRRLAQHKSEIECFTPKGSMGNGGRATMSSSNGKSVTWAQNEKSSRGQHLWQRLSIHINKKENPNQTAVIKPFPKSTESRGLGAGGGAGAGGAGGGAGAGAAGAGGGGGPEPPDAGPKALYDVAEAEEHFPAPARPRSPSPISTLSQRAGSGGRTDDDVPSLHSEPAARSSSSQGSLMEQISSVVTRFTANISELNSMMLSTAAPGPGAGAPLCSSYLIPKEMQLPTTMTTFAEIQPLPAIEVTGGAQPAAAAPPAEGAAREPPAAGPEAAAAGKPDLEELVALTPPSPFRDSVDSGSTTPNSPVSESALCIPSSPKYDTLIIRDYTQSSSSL

The first experiment addresses mGluR5 receptor (Sus scrofa, UniProt I3LUI7). The experiment can be described thus: Affinity for the mGluR5 receptor: inhibition of 3[H]-MPEP binding in pig brain homogenate. Conditions: 10 μM compound, 5 nM 3[H]-MPEP, read-out: mGluR5 receptor inhibition of ^3[H]-MPEP binding [10 μM] in % at a concentration of the example compounds of 10 μM. In a few lines:
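Test compounds were screened at 10 μM for displacement of 5 nM [3H]-MPEP from pig brain homogenate (450 μg protein, pH 8.0 Hepes buffer) over 60 min at room temperature. After filtration, scintillation counting gave the read-out. 10 μM unlabelled MPEP set nonspecific binding.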
For `C(#Cc1ccc(-c2nc3cnccn3c2NC2CCCCC2)s1)c1ccccc1` [Example 87, N-cyclohexyl-2-(5-(phenylethynyl)thiophen-2-yl)imidazo[1,2-a]pyrazin-3-amine], the inhibition at 10 µM amounted to 35%. Same read-out and setting: the figure for `Cc1cc(Br)c2nc(-c3ccc(C#Cc4ccccn4)s3)c(NC3CCCC3)n2c1` [Example 92, 8-bromo-N-cyclopentyl-6-methyl-2-(5-(pyridin-2-ylethynyl)thiophen-2-yl)imidazo[1,2-a]pyridin-3-amine] is 82%. Regarding `Cc1cc(Br)c2nc(-c3cccc(C#Cc4ccccn4)c3)c(NC(C)(C)C)n2c1` [Example 96, 8-bromo-N-tert-butyl-6-methyl-2-(3-(pyridin-2-ylethynyl)phenyl)imidazo[1,2-a]pyridin-3-amine], the inhibition at 10 µM turned out to be 79%. Take `CC(C)(C)CC(C)(C)Nc1c(-c2cccc(C#Cc3ccccn3)c2)nc2c(Cl)cc(C(F)(F)F)cn12` [Example 103, 8-chloro-2-(3-(pyridin-2-ylethynyl)phenyl)-6-(trifluoromethyl)-N-(2,4,4-trimethylpentan-2-yl)imidazo[1,2-a]pyridin-3-amine]: the inhibition at 10 µM is 66%.

Still in this experiment, the particulars now being: 3[H]-MPEP binding.
For orientation: pIC50 means the IC50 on a negative log10 scale, so that one unit is a factor of ten. Low readings indicate a large IC50, high ones a small IC50. `COC(=O)c1nccn2c(NC(C)(C)CC(C)(C)C)c(-c3ccc(C#Cc4ccccc4)s3)nc12` [Example 84, methyl-2-(5-(phenylethynyl)thiophen-2-yl)-3-(2,4,4-trimethylpentan-2-ylamino)imidazo[1,2-a]pyrazine-8-carboxylate] showed a pIC50 of 5.88. The compound `CC(C)(C)CC(C)(C)Nc1c(-c2ccc(C#Cc3ccccc3)s2)nc2ncccn12` [Example 85, 2-(5-(phenylethynyl)thiophen-2-yl)-N-(2,4,4-trimethylpentan-2-yl)imidazo[1,2-a]pyrimidin-3-amine] showed a pIC50 of 5.70. `Cc1cccc(C#Cc2ccc(-c3nc4cnccn4c3NC(C)(C)CC(C)(C)C)s2)n1` [Example 86, 2-(5-((6-methylpyridin-2-yl)ethynyl)thiophen-2-yl)-N-(2,4,4-trimethylpentan-2-yl)imidazo[1,2-a]pyrazin-3-amine] had a pIC50 of 6.49.

Turning to `C(#Cc1ccc(-c2nc3cnccn3c2N2CCCCC2)s1)c1ccccc1` [Example 88, 2-(5-(phenylethynyl)thiophen-2-yl)-3-(piperidin-1-yl)imidazo[1,2-a]pyrazine], the pIC50 was 5.85. `CN(c1c(-c2ccc(C#Cc3ccccc3)s2)nc2cnccn12)C(C)(C)C` [Example 89, N-tert-butyl-N-methyl-2-(5-(phenylethynyl)thiophen-2-yl)imidazo[1,2-a]pyrazin-3-amine] had a pIC50 of 7.35.

`CCN(CC)c1c(-c2ccc(C#Cc3ccccc3)s2)nc2cnccn12` [Example 93, N,N-diethyl-2-(5-(phenylethynyl)thiophen-2-yl)imidazo[1,2-a]pyrazin-3-amine] gave a pIC50 of 6.60.

With `CC(C)(C)Nc1c(-c2ccc(C#Cc3ccccc3)o2)nc2cnccn12` [Example 95, N-tert-butyl-2-(5-(phenylethynyl)furan-2-yl)imidazo[1,2-a]pyrazin-3-amine], the pIC50 is 5.76. Still for that read-out and setting: the figure for `Cc1cccn2c(NC(C)(C)C)c(-c3ccc(C#Cc4ccccc4)s3)nc12` [Example 97, N-tert-butyl-8-methyl-2-(5-(phenylethynyl)thiophen-2-yl)imidazo[1,2-a]pyridin-3-amine] is 6.23; for `CN(c1c(-c2ccc(C#Cc3ccccc3)s2)nc2cnccn12)C(C)(C)CC(C)(C)C` [Example 98, N-methyl-2-(5-(phenylethynyl)thiophen-2-yl)-N-(2,4,4-trimethylpentan-2-yl)imidazo[1,2-a]pyrazin-3-amine hydrochloride] it is 6.60; for `C(#Cc1ccc(-c2nc3cnccn3c2N2CCCC2)s1)c1ccccc1` [Example 99, 2-(5-(phenylethynyl)thiophen-2-yl)-3-(pyrrolidin-1-yl)imidazo[1,2-a]pyrazine hydrochloride] it is 6.27. Take `CC(C)(C)Nc1c(-c2ccc(C#Cc3ccc(F)cc3)s2)nc2cnccn12` [Example 100, N-tert-butyl-2-(5-((4-fluorophenyl)ethynyl)thiophen-2-yl)imidazo[1,2-a]pyrazin-3-amine hydrochloride]: the pIC50 was 6.47. Take `Cc1ccn2c(NC(C)(C)C)c(-c3ccc(C#Cc4ccccc4)s3)nc2c1` [Example 101, N-tert-butyl-7-methyl-2-(5-(phenylethynyl)thiophen-2-yl)imidazo[1,2-a]pyridin-3-amine]: the pIC50 was 5.61. Still for that read-out and setting: the figure for `Cc1cccc2nc(-c3ccc(C#Cc4ccccc4)s3)c(NC(C)(C)C)n12` [Example 102, N-tert-butyl-5-methyl-2-(5-(phenylethynyl)thiophen-2-yl)imidazo[1,2-a]pyridin-3-amine] is 5.05; for `CC(C)(C)Nc1c(-c2ccc(C#Cc3cccc(F)c3)s2)nc2cnccn12` [Example 104, N-tert-butyl-2-(5-((3-fluorophenyl)ethynyl)thiophen-2-yl)imidazo[1,2-a]pyrazin-3-amine hydrochloride] it is 7.04; for `CC(C)(C)Nc1c(-c2ccc(C#Cc3ccccc3F)s2)nc2cnccn12` [Example 105, N-tert-butyl-2-(5-((2-fluorophenyl)ethynyl)thiophen-2-yl)imidazo[1,2-a]pyrazin-3-amine hydrochloride] it is 6.82. Same read-out and setting: to `COC(=O)c1nccn2c(NC(C)(C)C)c(-c3ccc(C#Cc4ccccc4)s3)nc12` [Example 106, methyl-3-(tert-butylamino)-2-(5-(phenylethynyl)thiophen-2-yl)imidazo[1,2-a]pyrazine-8-carboxylate] belongs 6.68. Still for that read-out and setting: the figure for `CC(C)(C)Nc1c(-c2ccc(C#Cc3cnccn3)s2)nc2cnccn12` [Example 107, N-tert-butyl-2-(5-(pyrazin-2-ylethynyl)thiophen-2-yl)imidazo[1,2-a]pyrazin-3-amine] is 7.28; for `CC(C)(C)Nc1c(-c2ccc(C#Cc3ccc(N)cc3)s2)nc2cnccn12` [Example 108, 2-(5-((4-aminophenyl)ethynyl)thiophen-2-yl)-N-tert-butylimidazo[1,2-a]pyrazin-3-amine] it is 5.91. On to `CC(C)Nc1c(-c2ccc(C#Cc3ccccc3)s2)nc2cnccn12` [Example 109, N-isopropyl-2-(5-(phenylethynyl)thiophen-2-yl)imidazo[1,2-a]pyrazin-3-amine], for which the pIC50 is 6.52. Still for that read-out and setting: the figure for `CC(C)(C)Nc1c(-c2cccc(C#Cc3ccccn3)c2)nc2cnccn12` [Example 111, N-tert-butyl-2-(3-(pyridin-2-ylethynyl)phenyl)imidazo[1,2-a]pyrazin-3-amine] is 5.86. The same measure, in the same setting: the figure for `COc1ccccc1C#Cc1ccc(-c2nc3cnccn3c2NC(C)(C)C)s1` [Example 112, N-tert-butyl-2-(5-((2-methoxyphenyl)ethynyl)thiophen-2-yl)imidazo[1,2-a]pyrazin-3-amine hydrochloride] is 5.12; for `COc1cccc(C#Cc2ccc(-c3nc4cnccn4c3NC(C)(C)C)s2)c1` [Example 113, N-tert-butyl-2-(5-((3-methoxyphenyl)ethynyl)thiophen-2-yl)imidazo[1,2-a]pyrazin-3-amine hydrochloride] it is 7.12.

Turning to `COc1ccc(C#Cc2ccc(-c3nc4cnccn4c3NC(C)(C)C)s2)cc1` [Example 114, N-tert-butyl-2-(5-((4-methoxyphenyl)ethynyl)thiophen-2-yl)imidazo[1,2-a]pyrazin-3-amine hydrochloride], the pIC50 was 5.68.

`CC(C)(C)Nc1c(-c2ccc(C#Cc3ccccc3)s2)nc2ccc3ccccc3n12` [Example 115, N-tert-butyl-2-(5-(phenylethynyl)thiophen-2-yl)imidazo[1,2-a]quinolin-1-amine] had a pIC50 of 5.11. `Cc1cccc(C#Cc2cccc(-c3nc4cnccn4c3NC(C)(C)C)c2)n1` [Example 117, N-tert-butyl-2-(3-((6-methylpyridin-2-yl)ethynyl)phenyl)imidazo[1,2-a]pyrazin-3-amine]: the pIC50 is 6.06. Same read-out and setting: the figure for `Cc1nc(C#Cc2ccccc2)ccc1-c1nc2cnccn2c1NC(C)(C)C` [Example 118, N-tert-butyl-2-(2-methyl-6-(phenylethynyl)pyridin-3-yl)imidazo[1,2-a]pyrazin-3-amine] is 5.20; for `CC(C)(C)Nc1c(-c2ccc(C#Cc3ccccn3)o2)nc2cnccn12` [Example 119, N-tert-butyl-2-(5-(pyridin-2-ylethynyl)furan-2-yl)imidazo[1,2-a]pyrazin-3-amine] it is 7.44; for `CC(C)(C)Nc1c(-c2ccc(C#Cc3ccccc3)s2)nc2c(C(=O)O)nccn12` [Example 120, 3-(tert-butylamino)-2-(5-(phenylethynyl)thiophen-2-yl)imidazo[1,2-a]pyrazine-8-carboxylic acid] it is 5.44.

`CC(C)(C)Nc1c(-c2ccc(C#Cc3ccc(O)cc3)s2)nc2cnccn12` [Example 121, 4-((5-(3-(tert-butylamino)imidazo[1,2-a]pyrazin-2-yl)thiophen-2-yl)ethynyl)phenol hydrochloride] showed a pIC50 of 5.60. Same read-out and setting: to `CC(C)(C)Nc1c(-c2ccc(C#Cc3cccc(O)c3)s2)nc2cnccn12` [Example 122, 3-((5-(3-(tert-butylamino)imidazo[1,2-a]pyrazin-2-yl)thiophen-2-yl)ethynyl)phenol] belongs 6.89. Still for that read-out and setting: to `CC(C)(C)Nc1c(-c2ccc(C#Cc3cccc(N)c3)s2)nc2cnccn12` [Example 123, 2-(5-((3-aminophenyl)ethynyl)thiophen-2-yl)-N-tert-butylimidazo[1,2-a]pyrazin-3-amine hydrochloride] belongs 7.85; to `CC(C)(C)Nc1c(-c2ccc(C#Cc3ccccc3N)s2)nc2cnccn12` [Example 124, 2-(5-((2-aminophenyl)ethynyl)thiophen-2-yl)-N-tert-butylimidazo[1,2-a]pyrazin-3-amine hydrochloride], 6.77.
